Columns and labels:
[1] = Serum stability of 64Cu-radiolabeled complexes of pyridyl chelators; assay type: in vitro ADME; details: 64Cu complex, human serum, 37° C.
Method: In vitro serum stability of the radiolabeled complexes was performed to determine if the chelators radiolabeled with ^64Cu remained stable without loss of the radioactivity in human serum as described above. All ^64Cu-radiolabeled chelators remained intact in human serum for 2 days as evidenced by ITLC and HPLC analysis.

[2] = EDTA challenge of 177Lu-radiolabeled pyridyl chelators; assay type: physicochemical; details: 37° C.; for stability of 177Lu complex in EDTA solution: EDTA 100-fold molar excess, 24 h; for Bound (%): Lu-177 complex, EDTA solution 100-fold molar excess
Method: (§1) ^64Cu- or ^177Lu-radiolabeled complexes were prepared by reaction of each chelator (20 μg) with ^64Cu or ^177Lu (60 μCi) in 0.25M NH4OAc buffer (pH 5.5) for 2 h at room temperature. The radiolabeled complexes were prepared as described above and directly used for the experiments. The radiolabeled complex was mixed with EDTA at a 100-fold molar excess. The resulting mixture was incubated for 24 h at 37° C. The stability of ^64Cu-radiolabeled complexes in the solution was evaluated using ITLC (20 mM EDTA in 0.15M NH40OAc).

[3] = EDTA challenge of 64Cu-radiolabeled pyridyl chelator; assay type: physicochemical; details: 37° C.; for Bound (%): Cu-64 complex, EDTA solution 100-fold molar excess
Method: as §1

[4] = EDTA challenge of 64Cu-radiolabeled complexes of chelators A-F; assay type: physicochemical; details: EDTA 100-fold molar excess; for Bound complex (%): 64Cu complex, 37° C.
Method: ^64Cu-radiolabeled complexes were further evaluated for complex stability based on EDTA challenge. ^64Cu-radiolabeled complexes were freshly prepared and treated with a solution of EDTA at a 100-fold molar excess, and the resulting solution (pH 5.5) was incubated at 37° C. for 24 h. […] Among the complexes tested, ^64Cu-radiolabeled pentadentate chelator B was least tolerant of EDTA treated, and most of ^64Cu was dissociated from the complex (˜80%) at 24 h time point. ^64Cu-radiolabeled chelator C containing the carbonyl donor group was found dissociated rapidly in the presence of the excess EDTA, and 50% of the activity was transchelated by EDTA at 1 h time point. ^64Cu-radiolabeled chelators D and F with the respective hydroxyl and thiophenyl donor group were slower in dissociation than ^64Cu-radiolabeled chelators B and C and released >45% of ^64Cu at 24 h time point. Dissociation of the activity from the ^64Cu-radiolabeled chelators was also measured using radio-HPLC at 25 h time point (FIG. 5). The peak related to ^64Cu-EDTA (tR=2.5 min) was clearly separated from bound ^64Cu complex of the chelators. ^64Cu-radiolabeled complex of polar chelators E and F have the respective retention time at […] and 6.2 min, while other ^64Cu-radiolabeled complexes have similar retention time (tR=7˜8 min). The ^64Cu-radiolabeled chelators C and D gave a small peak (tR=˜3 min and tR=˜7 min, respectively).
^64Cu-radiolabeled complexes were prepared by reaction of each chelator (20 μg) with ^64Cu (60 μCi) in 0.25M NH4OAc buffer (pH 5.5) for 2 h at room temperature. The radiolabeled complexes were prepared as described above and directly used for the experiments. ^64Cu-radiolabeled complex was mixed with EDTA at a 100-fold molar excess. The resulting mixture was incubated for 24 h at 37° C. The stability of ^64Cu-radiolabeled complexes in the solution was evaluated using ITLC (20 mM EDTA in 0.15M NH4OAc). A solution of the radiolabeled complex in serum (3˜20 μL) was withdrawn at the designated time points and evaluated by ITLC as described above. Stability of the complexes was also evaluated at 25 h time point by HPLC (solvent A: 0.1% TFA in H2O, solvent B: 0.1% TFA in CH3CN, 0-100% B/15 min, flow rate: 1 mL/min). ^64Cu-EDTA complex was eluted early (tR=˜2.5 min), while ^64Cu-radiolabeled complexes of chelators A-D, E, and F have the respective retention time (tR=7˜8 min, tR=4.6 min, and tR=6.2 min).

| Bound complex (%) ([1]; pH 7, HPLC, 0 hour) | Bound complex (%) ([1]; pH 7, HPLC, 19 hour) | Bound complex (%) ([1]; pH 7, HPLC, 48 hour) | Bound complex (%) ([1]; pH 7, ITLC, 0 hour) | Bound complex (%) ([1]; pH 7, ITLC, 19 hour) | Bound complex (%) ([1]; pH 7, ITLC, 48 hour) | Bound complex (%) ([4]; pH 5.5, ITLC, 0 h) | Bound complex (%) ([4]; pH 5.5, ITLC, 1 h) | Bound complex (%) ([4]; pH 5.5, ITLC, 4 h) | Bound complex (%) ([4]; pH 5.5, ITLC, 19 h) | Bound complex (%) ([4]; pH 5.5, ITLC, 24 h) | Bound complex (%) ([4]; pH 5.5, radio-HPLC, 25 h) | SMILES | other results |
| --- | --- | --- | --- | --- | --- | --- | --- | --- | --- | --- | --- | --- | --- |
| – | – | – | – | – | – | 99.9 ± 0.1 | 90.4 ± 0.1 | 69.2 ± 0.3 | 22.9 ± 2.1 | 19.4 ± 1.1 | 11.9 ± 0.6 | O=C(O)CN1CCN(CCCc2ccc([N+](=O)[O-])cc2)CCN(CC(=O)O)CC1 [Chelator B, 2-[4-(carboxymethyl)-7-[3-(4-nitrophenyl)propyl]-1,4,7-triazonan-1-yl]acetic acid] | 64Cu activity dissociated from the complex / transferred to EDTA ([4]; 24 h time point): ~80% |
| – | – | – | – | – | – | 97.7 ± 0.2 | 50.4 ± 0.4 | 45.8 ± 1.5 | 41.0 ± 0.4 | 39.0 ± 0.2 | 21.7 ± 1.3 | O=C(O)CN1CCN(CC(=O)O)CCN(CC(=O)CCc2ccc([N+](=O)[O-])cc2)CC1 [Chelator C, 2-[4-(carboxymethyl)-7-[4-(4-nitrophenyl)-2-oxobutyl]-1,4,7-triazonan-1-yl]acetic acid] | 64Cu activity transchelated by EDTA ([4]; 1 h time point): 50% |
| – | – | – | – | – | – | 99.5 ± 0.3 | 86.8 ± 0.7 | 79.1 ± 0.4 | 59.3 ± 0.0 | 55.0 ± 0.6 | 41.0 ± 2.6 | O=C(O)CN1CCN(CC(=O)O)CCN(CC(O)CCc2ccc([N+](=O)[O-])cc2)CC1 (stereo not shown) [Chelator D, 2-[4-(carboxymethyl)-7-[2-hydroxy-4-(4-nitrophenyl)butyl]-1,4,7-triazonan-1-yl]acetic acid] | – |
| – | – | – | – | – | – | 100 ± 0.1 | 95.7 ± 0.5 | 87.5 ± 0.4 | 59.5 ± 0.6 | 53.4 ± 1.7 | 42.3 ± 0.3 | O=C(O)CN1CCN(CC(=O)O)CCN(Cc2cccs2)CC1 [Chelator F, 2-[4-(carboxymethyl)-7-(thiophen-2-ylmethyl)-1,4,7-triazonan-1-yl]acetic acid] | – |

Second part, the molecule before the results:

| SMILES | Bound complex (%) ([1]; pH 7, HPLC, 0 hour) | Bound complex (%) ([1]; pH 7, HPLC, 19 hour) | Bound complex (%) ([1]; pH 7, HPLC, 48 hour) | Bound complex (%) ([1]; pH 7, ITLC, 0 hour) | Bound complex (%) ([1]; pH 7, ITLC, 19 hour) | Bound complex (%) ([1]; pH 7, ITLC, 48 hour) | Bound complex (%) ([4]; pH 5.5, ITLC, 0 h) | Bound complex (%) ([4]; pH 5.5, ITLC, 1 h) | Bound complex (%) ([4]; pH 5.5, ITLC, 4 h) | Bound complex (%) ([4]; pH 5.5, ITLC, 19 h) | Bound complex (%) ([4]; pH 5.5, ITLC, 24 h) | Bound complex (%) ([4]; pH 5.5, radio-HPLC, 25 h) | other results |
| --- | --- | --- | --- | --- | --- | --- | --- | --- | --- | --- | --- | --- | --- |
| O=C(O)CN1CCN(CCN(CC(=O)O)Cc2ccccn2)CCN(CC(=O)O)CC1 [Chelator 4] | (99.9 ± 0.0) % | (99.9 ± 0.07) % | (100.0 ± 0.0) % | 99.9 ± 0.0 | 100 ± 0.0% | 100 ± 0.07 | – | – | – | – | – | – | stability of 177Lu complex in EDTA solution [2]: remained stable in EDTA solution without releasing significant amount of the radioactivity; Bound (%) ([2]; pH 5.5, 0 hour): 99.8%; Bound (%) ([2]; pH 5.5, 1 hour): 99.5%; Bound (%) ([2]; pH 5.5, 6 hour): 99.2%; Bound (%) ([2]; pH 5.5, 24 hour): 98.3% |
| NCCCNC(=O)c1ccc(CN(CCN2CCN(CC(=O)O)CCN(CC(=O)O)CC2)CC(=O)O)nc1 [Chelator 10] | (98.3 ± 2.0) % | (96.7 ± 0.0) % | (97.2 ± 0.21) % | 99.9 ± 0.07 | 99.8 ± 0.14% | 99.9 ± 0.0 | – | – | – | – | – | – | stability of 177Lu complex in EDTA solution [2]: remained stable in EDTA solution without releasing significant amount of the radioactivity; Bound (%) ([2]; pH 5.5, 0 hour): 99.8%; Bound (%) ([2]; pH 5.5, 1 hour): 95.7%; Bound (%) ([2]; pH 5.5, 6 hour): 94.9%; Bound (%) ([2]; pH 5.5, 24 hour): 94.6% |
| NCCCNC(=O)c1ccc(CN2CCN(CC(=O)O)CCN(CC(=O)O)CC2)nc1 [Chelator 13] | (100 ± 0.0) % | (100 ± 0.0) % | (100 ± 0.0) % | 100.0 ± 0.07 | 100.0 ± 0.0^ % | 99.9 ± 0.07 | – | – | – | – | – | – | Bound (%) ([3]; pH 5.5, 0 hour): 100 ± 0.07%; Bound (%) ([3]; pH 5.5, 1 hour): 99.9 ± 0.07%; Bound (%) ([3]; pH 5.5, 24 hour): 99.2 ± 0.42%; stability of 64Cu complex in EDTA challenge ([3]; EDTA 100-fold molar excess, 24 h): extremely stable in EDTA challenge |

Source: patent publication US10441669B2, “Multifunctional chelators, complexes, and compositions thereof, and methods of using same” (ILLINOIS INSTITUTE OF TECHNOLOGY, priority 2013, dated 2019)
